Laboratory results taken from patent US5137890A, “4-phenyl tetrahydropyrido(4,3-d)pyrimidines” (Ortho Pharmaceutical Corporation, priority 1990, dated 1992).
Where a name gives a salt, the structure may show the parent alone.

Assays:
Ethanol-Induced Lesions = assay: Cytoprotection: inhibition of ethanol-induced lesions; type: in vivo, male, Charles River rats; details: Rattus norvegicus, oral, 1 hour before 50% ethanol
Description: Using the procedures of Robert, A. et al., Gastroenterology 77, 433(1979), male, Charles River rats weighing between 140 and 220 g were fasted overnight, but allowed water ad libitum. The rats were, however, deprived of water during the experiment. The rats were weighed and pretreated orally with the example compounds at the doses shown below in Table 1. One hour later, the necrotizing agent, 50% ethanol, was administered orally in a dose volume of 1 ml/animal. After an additional hour, the rats were sacrificed with CO2, the stomachs removed, inflated with distilled water, opened along the greater curvature and laid out on a flat surface. The presence of mucosal bleeding was noted and after wiping off the mucosa, the presence of submucosal bleeding was also noted. The incidence of lesions in the mucosa and the submucosa was statistically analyzed by the method of Chisquares using Yates correction.

80 mg/kg aspirin = assay: Cytoprotection vs. 80 mg/kg aspirin (footnotes of Table 1); type: in vivo

SMILES | inhibition in vivo at 10 mg/kg (Ethanol-Induced Lesions) | ED50 (Ethanol-Induced Lesions) | further results
CC(=O)N1CCc2nc(C)nc(-c3ccc(Cl)cc3)c2C1 [Example 1, 6-Acetyl-4-(4-chlorophenyl)-2-methyl-5,6,7,8-tetrahydropyrido[4,3-d]pyrimidine] | 20% |  | 
CC(=O)N1CCc2nc(C)nc(-c3ccc(F)cc3)c2C1 [Example 2, 6-Acetyl-4-(4-fluorophenyl)-2-methyl-5,6,-7,8-tetrahydropyrido[4,3-d]pyrimidine Monohydrochloride Monohydrate] | 100% |  | 8/10 vs. 80 mg/kg aspirin (80 mg/kg aspirin; at 20 mg/kg vs. 80 mg/kg aspirin): 8/10
CCN1CCc2nc(Nc3ccc(C(F)(F)F)cc3)nc(-c3ccc(Cl)cc3)c2C1 [Example 5, 4-(4-chlorophenyl)-6-ethyl-2-(4-trifluromethylphenylamino)-5,6,7,8-tetrahydropyrido[4,3-d]pyrimidine dihydrochloride monohydrate] | 20% |  | 
CCNc1nc2c(c(-c3ccc(F)cc3)n1)CN(C(C)=O)CC2 [Example 7, 6-Acetyl-4-(4-fluorophenyl)-2-ethylamino-5,6,7,8-tetrahydropyrido[4,3-d]pyrimidine] |  | 5 mg/kg | 
C=CCN1CCc2nc(NCC)nc(-c3ccc(Cl)cc3)c2C1 [Example 9, 6-Allyl-4-(4-chlorophenyl)-2-ethylamino-5,6,7,8-tetrahydropyrido[4,3-d]pyrimidine] | 80% |  | 
CCNc1nc2c(c(-c3ccc(Cl)cc3)n1)CN(Cc1ccccc1)CC2 [Example 10, 6-Benzyl-4-(4-chlorophenyl)-2-ethylamino-5,6,7,8-tetrahydropyrido[4,3-d]pyrimidine] | 20% |  | 
CCNc1nc2c(c(-c3ccc(Cl)cc3)n1)CN(CC)CC2 [Example 11, 4-(4-Chlorophenyl)-6-ethyl-2-ethylamino-5,6,7,8-tetrahydropyrido[4,3-d]pyrimidine] |  | 9.5 mg/kg | 
CCNc1nc2c(c(-c3ccc(F)cc3)n1)CNCC2.Cl [Example 12, 2-Ethylamino-4-(4-fluorophenyl)5,6,7,8-tetrahydropyrido[4,3-d]pyrimidine Monohydrochloride] |  | 4.7 mg/kg | 8/10 vs. 80 mg/kg aspirin (80 mg/kg aspirin; at 10 mg/kg vs. 80 mg/kg aspirin): 8/10
CC(=O)N1CCc2nc(N)nc(-c3ccc(Cl)cc3)c2C1 [Example 13, 6-Acetyl-2-amino-4-(4-chlorophenyl)-5,6,7,8-tetrahydropyrido[4,3-d]pyrimidine] |  | ~3 mg/kg | 
CC(=O)N1CCc2nc(N)nc(-c3ccc(F)cc3)c2C1 [Example 14, 6-Acetyl-2-amino-4-(4-fluorophenyl)-5,6,7,8-tetrahydropyrido[4,3-d]pyrimidine Monohydrate] | 80% |  | 
Nc1nc2c(c(-c3ccc(Cl)cc3)n1)CNCC2 [Example 15, 2-Amino-4-(4-chlorophenyl)-5,6,7,8-tetrahydropyrido[4,3-d]pyrimidine Dihydrochloride] | 40% |  | 
Nc1nc2c(c(-c3ccc(F)cc3)n1)CNCC2 [Example 16, 2-amino-4-(4-fluorophenyl)-5,6,7,8-tetrahydropyrido[4,3-d]pyrimidine dihydrochloride hemihydrate] | 80% |  | 
CCN1CCc2nc(N)nc(-c3ccc(Cl)cc3)c2C1.Cl.Cl [Example 17, 2-Amino-4-(4-chlorophenyl)-6-ethyl-5,6,7,8-tetrahydropyrido[4,3-d]pyrimidine Dihydrochloride] |  | 3.2 mg/kg | ED50 (80 mg/kg aspirin): 14.5 mg/kg
CCN1CCc2nc(N)nc(-c3ccc(F)cc3)c2C1 [Example 18, 2-Amino-4-(4-fluorophenyl)-6-ethyl-5,6,7,8-tetrahydropyrido[4,3-d]pyrimidine] |  | 3.7 mg/kg | 8/10 v. 80 mg/kg aspirin (80 mg/kg aspirin; at 40 mg/kg v. 80 mg/kg aspirin): 8/10
CCCN1CCc2nc(N)nc(-c3ccc(Cl)cc3)c2C1 [Example 19, 2-Amino-4-(4-chlorophenyl)-6-propyl-5,6,7,8-tetrahydropyrido[4,3-d]-pyrimidine Dihydrochloride 1/4 Hydrate] |  | 2.7 mg/kg | 
C=CCN1CCc2nc(N)nc(-c3ccc(Cl)cc3)c2C1.Cl.Cl [Example 20, 6-Allyl-2-amino-4-(4-chlorophenyl)-5,6,7,8-tetrahydropyrido[4,3-d]pyrimidine Dihydrochloride] |  | 7.9 mg/kg | 
C=CCN1CCc2nc(N)nc(-c3ccc(F)cc3)c2C1.Cl.Cl [Example 21, 6-Allyl-2-amino-4-(4-fluorophenyl)-5,6,7,8-tetrahydropyrido[4,3-d]pyrimidine Dihydrochloride] |  | 5 mg/kg | 
CN1CCc2nc(N)nc(-c3ccc(Cl)cc3)c2C1 [Example 22, 2-Amino-4-(4-chlorophenyl)-6-methyl-5,6,7,8-tetrahydropyrido[4,3-d]pyrimidine 1/4 Hydrate] | 100% |  | 
CC(=O)N1CCc2nc(N)nc(-c3ccccc3)c2C1.O [Example 23, 6-Acetyl-2-amino-4-phenyl-5,6,7,8-tetrahydropyrido[4,3-d]pyrimidine Monohydrate] |  | 2.3 mg/kg | ED50 (80 mg/kg aspirin): 9.5 mg/kg
CC(=O)N1CCc2nc(C)nc(-c3ccc(C)cc3)c2C1 [Example 24, 6-Acetyl-2-methyl-4-(4-methylphenyl)-5,6,7,8-tetrahydropyrido[4,3-d]pyrimidine Monohydrate] | 40% |  | 
CCCN(CCC)c1nc2c(c(-c3ccc(C)cc3)n1)CN(C(C)=O)CC2 [Example 25, 6-Acetyl-5,6,7,8-tetrahydro-4-(4-methylphenyl) -2-dipropylaminopyrido[4,3-d]-pyrimidine Monohydrate] | 40% |  | 
CCN(CC)CCN1CCc2nc(N)nc(-c3ccc(F)cc3)c2C1 [Example 26, 2-Amino-6-(2-diethylaminoethyl)-4-(4-fluorophenyl)-5,6,7,8-tetrahydropyrido[4,3-d]pyrimidine Trihydrochloride] | 80% |  | 
CN(C)CCCN1CCc2nc(N)nc(-c3ccc(F)cc3)c2C1 [Example 27, Trihydrochloride] |  | ~7 mg/kg | 
